According to patent US20120329985A1, “Optimal hydolysis conditions of soy protein to produce peptides with lipolysis-stimulating activity and their sequencing and use thereof” (TUNGHAI UNIVERSITY, priority 2011, published 2012):
Where two headings read alike, the source gives them in different places. Where a SMILES comes first, the peptide text is derived from it.

Columns and labels:
[1] = tested on: gastrointestinal enzymes (pepsin, pancreatin); assay: Resistance of the synthetical peptides in the mimic gastrointestinal environment; details: pepsin 25:1, pH 2.0, 37° C., 4 hours; pancreatin 25:1, 4 hours
Protocol: (§2) Then adding pepsin with substrate-enzyme ratio at 25:1 and incubating for 4 hours is performed to mimic the environment in stomach. Following the incubation, the solution is neutralized by addition of 2N NaOH and heating some aliquot for 15 minutes to terminate the pepsin activity for freeze storage. The remainder is further incubated with pancreatin with substrate-enzyme ratio at 25:1 for 4 hours to mimic the intestinal environment. After termination of the enzyme activity by heating in boiled water and followed by cooling, the sample is freeze stored for the further analysis.
(§3) After temperature returned, the each frozen sample processed in the mimic gastrointestinal environment is centrifuged at 10,000×g for 40 minutes. After centrifugation, the supernatant is collected and filtrated through 0.22 μm filter, and added into the culture medium for 3T3-L1 adipocytes. On day 11 post-differentiation, the supernatant or cell extract are collected as the methods described in example 3 and example 7 for measuring the glycerol release and triglyceride residue in the adipocytes. The glycerol release and triglyceride residue in the adipocytes are calculated from the absorption excited by 500 and 520 nm wavelength.

[2] = tested on: gastrointestinal enzymes (pepsin, pancreatin); details: pH 2
Protocol: as §2, §3

3T3-L1 adipocytes [3] = assay: Measurement of the triglyceride residue in 3T3-L1 adipocytes; assay type: cell-based; details: 4 ppm fractions and synthetical peptides (FIG. 23)
Protocol: (§1) The precursor cells of 3T3-L1 cell are purchased from Food Industry Research and Development Institute in Taiwan. The purchased precursor cells of 3T3-L1 adipocytes are cultured in 24-wells plate with 1×10^4 cells/well. The cells are cultured with DMEM (Dulbecco's Modified Eagle Medium) containing 10% FBS (Fetal bovine serum) at 37° C. in the incubator with 5% CO2, and refresh cultured medium every two days. While the 3T3-L1 cells are filled within the culture dish, the culture medium is changed to the differentiation medium (DM) for promoting adipocytes differentiation, which is defined as day 0 post-differentiation. The differentiation medium contains 1.74 μM insulin, […] dexamethasone (DEX) and 0.5 mM isobutyl-methylxanthine (IBMX). From day 2 post-differentiation, the culture medium is exchanged to DMEM with 1.74 μM insulin and refreshed every two days until day 8 post-differentiation. On day 8 post-differentiation, the precursor cells would differentiate into mature 3T3-L1 adipocytes.
On day 11, the cultured cells are washed with PBS and lysed by adding lysis buffer. The supernatant of cell lysis is collected after centrifugation at 13000 rpm for 10 minutes. 10 μL supernatant of cell lysis is mixed with 1 ml triglyceride detecting kit (TR213) and incubated at room-temperature for 5 minutes. After the incubation, the triglyceride residue in the adipocytes could be calculated according to absorption excited by 500 nm wavelength and shown in FIG. 6. In FIG. 6, control experiment is the cells without treatment of ISP hydrolysate or any fractions.

3T3-L1 adipocytes [4] = assay: Measurement of the glycerol released from 3T3-L1 adipocytes; assay type: cell-based; details: 4 ppm fractions and synthetical peptides (FIG. 22); control basal level 312.3
Protocol: as §1, with “adipocytes. […]” for “adipocytes.”
30 μL of the cultured medium is collected and mixed with detecting kit (GY105) to measure the glycerol release. After reaction at room-temperature for 5 minutes, the absorption excited by 520 nm wavelength is measured by spectrophotometer to calculate the glycerol released from adipocytes.

CC(C)C[C@H](NC(=O)[C@H](CC(C)C)NC(=O)[C@@H](N)CC(C)C)C(=O)O [Leu-Leu-Leu] (H-Leu-Leu-Leu-OH; N-terminus and C-terminus assumed)
Bioactivity for lipolysis after gastrointestinal enzymes [1]: resistant

CC(C)[C@H](N)C(=O)N[C@@H](Cc1c[nH]cn1)C(=O)N[C@H](C(=O)N[C@H](C(=O)O)C(C)C)C(C)C [Val-His-Val-Val] (H-VHVV-OH; N-terminus and C-terminus assumed)
Bioactivity for lipolysis after gastrointestinal enzymes [2]: resistant

Ile-Ile-Ile
Effect on triglyceride residue versus control (3T3-L1 adipocytes [3]): significantly reduce

Ile-Leu-Leu
Glycerol release (3T3-L1 adipocytes [4]): 540.81 nmol/mg protein
Effect on triglyceride residue versus control (3T3-L1 adipocytes [3]): significantly reduce
Triglyceride residue (3T3-L1 adipocytes [3]; control 3.2): 1.41 μmol/mg protein
